{
  "source": "patent US20240041878A1",
  "about": "“APELIN RECEPTOR MODULATORS FOR TREATMENT OF A DISORDER OR DISEASE ASSOCIATED WITH BBB PERMEABILITY” (BioAge Labs, Inc., priority 2022, published 2024)",
  "key": {"26 month-old mice": {"system": "26 month-old mice", "test": "Total BDNF ELISA in hippocampus of aged mice", "format": "in vivo, mouse", "conditions": "50 mg/kg BID P.O. one week, p<0.05", "procedure": "The mice were handled in accordance with principles and guidelines established by the “Guide for the Care and Use of Laboratory Animals” and overseen by the BioAge Lab's institutional animal care and use committee (IACUC). Mice were housed conventionally in a constant temperature (20-22° C.) and humidity (40%-60%) animal room with a 12/12 h light/dark cycle and free access to food and water. 26 month-old mice were randomized based on the body weight and body condition scores to two groups (vehicle or BGE-105, n=8). Mice were administered P.O. vehicle or BGE-105 at 50 mg/kg (BID) for one week. […]\nHippocampal samples were homogenized with 30 volumes of radioimmunoprecipitation immunoassay (RIPA) buffer with Halt Protease and Phosphatase Inhibitor (Thermofisher) before being spun at 16,000×g for 20 minutes at 4° C. and supernatant removed to new, labeled tube. Total protein concentrations for each sample were analyzed with Pierce BCA Protein Assay Kit (Thermofisher) according to manufacturer's instructions, then all samples were diluted to 0.2 μg/μL with RIPA buffer.\nFor quantitative analysis of hippocampal BDNF expression, tissue samples were assessed with Quantikine® enzyme-linked immunosorbent assay (ELISA) for Total BDNF (R&D Systems) according to manufacturer's instructions. […]"}, "Mouse primary astrocytes": {"system": "Mouse primary astrocytes", "test": "Astrocyte glutamate uptake", "format": "cell-based", "conditions": "RAC+BGE-105 [10 nM, 50 nM, 250 nM] versus RAC", "procedure": "To stimulate astrocytes into a reactive state found in aging and neurodegenerative diseases per previous publications (Liddelow et al., 2017; Barbar et al., 2020), a combination of the cytokines TNF-α and IL-1α, and complement factor C1q, were added at 30 ng/mL, 3 ng/mL, and 400 ng/mL, respectively, into astrocyte culture media to make 'reactive astrocyte cocktail' (RAC) media. […] Bachem, Cat. #4029110), BAY-11-7082 (50 μM; Abcam, Cat. #ab141228) or equal volume of vehicle (0.01% DMSO in PBS) (hereafter referred to as 'RAC treatment'). […] Fresh HBSS was added to each well and 100 μM glutamate (Sigma, Cat. #G1251) was added to each well. Empty wells not containing cells were filled with HBSS and 100 μM [NT] negative control. Cells were incubated at room temperature for 3 hours before HBSS was collected and glutamate concentration determined by colorimetric assay (Sigma, Cat. #MAK004). Relative change in glutamate uptake was calculated compared to negative control wells."}},
  "data": [
    {"smiles": "COc1cccc(OC)c1-n1c(NS(=O)(=O)[C@@H](C)[C@H](C)c2ncc(C)cn2)nnc1-c1cncc(C)c1", "note": "[BGE-105, (2S,3R)—N-(4-(2,6-dimethoxyphenyl)-5-(5-methyl-3-pyridinyl)-4H-1,2,4-triazol-3-yl)-3-(5-methyl-2-pyrimidinyl)-2-butanesulfonamide]", "values": [
      {"measurement": "increase of concentration of total BDNF in the hippocampus", "setting": "26 month-old mice", "result": 20, "unit": "%"},
      {"measurement": "percentage of glutamate uptake in RAC astrocytes", "setting": "Mouse primary astrocytes", "result": "significantly and statistically increased"}
    ]}
  ]
}
